Assay results taken from patent US20060052447A1, “Novel substituted arylhexadienoic acids and esters thereof which can be used for the treatment and prevention of diabetes, dyslipidaemia and atherosclerosis, pharmaceutical compositios comprising them and processes for the preparation of them” (Merck Patent GmbH, priority 2002, published 2006).

What was measured:
Assay type in all cases: cell-based
[1] = target: T1, chimeric protein PPARγ-Gal4 (Homo sapiens, UniProt P37231); assay: PPAR activation, Gal4 chimera luciferase reporter in co-transfected CV-1 cells; details: 50 μM; CV-1 cells (monkey kidney cells); 18 hours contact; relative to control cells without product
T1 construct: expressed in transfected cells; host or cells: CV-1 cells (monkey kidney cells)
T1 sequence (P37231 238-503 limits assumed): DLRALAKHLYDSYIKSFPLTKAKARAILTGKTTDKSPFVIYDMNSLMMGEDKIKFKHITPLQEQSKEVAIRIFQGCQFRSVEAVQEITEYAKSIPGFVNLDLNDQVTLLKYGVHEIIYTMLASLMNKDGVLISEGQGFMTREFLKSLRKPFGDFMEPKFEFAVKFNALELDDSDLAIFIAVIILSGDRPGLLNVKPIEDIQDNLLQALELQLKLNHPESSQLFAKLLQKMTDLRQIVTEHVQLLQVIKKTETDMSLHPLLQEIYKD
Description: (§1) The measurement of the PPAR activation was performed according to a technique described by Lehmann et al. (1995, J. Biol. Chem. 270: 12953-12956).
(§2) CV-1 cells (monkey kidney cells) are co-transfected with an expression vector for the chimeric proteins PPARα-Gal4 or PPARγ-Gal4 and with a “reporter” plasmid that allows the expression of the luciferase gene placed under the control of a promoter containing Gal4 response elements.
(§3) The cells are inoculated in 96-well microplates and co-transfected using a commercial reagent with the reporter plasmid (pG5-tk-pGL3) and the expression vector for the chimeric protein (PPARα-Gal4 or PPARγ-Gal4). After incubating for 4 hours, whole culture medium (comprising 10% foetal calf serum) is added to the wells. After 24 hours, the medium is removed and replaced by whole medium comprising the test products (50 μM final).
(§4) The products are left in contact with the cells for 18 hours. The cells are then lysed and the luciferase activity is measured using a luminometer. A PPAR activation factor can then be calculated by means of the activation of the expression of the reporter gene induced by the product (relative to the control cells that have not received any product).

[2] = target: T2, chimeric protein PPARα-Gal4 (Homo sapiens, UniProt Q07869); assay: as above; details: 50 μM; CV-1 cells (monkey kidney cells); 18 hours contact; relative to control cells without product
T2 construct: expressed in transfected cells; host or cells: CV-1 cells (monkey kidney cells)
T2 sequence (Q07869 239-466 limits assumed): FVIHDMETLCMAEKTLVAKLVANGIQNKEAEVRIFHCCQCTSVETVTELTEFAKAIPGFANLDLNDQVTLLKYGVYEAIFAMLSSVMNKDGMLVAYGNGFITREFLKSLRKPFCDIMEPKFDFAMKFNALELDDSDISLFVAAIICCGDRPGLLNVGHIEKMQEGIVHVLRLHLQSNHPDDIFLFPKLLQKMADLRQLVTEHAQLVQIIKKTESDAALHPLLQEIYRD
Description: as §1, §2, §3, §4

[3] = target: T3, vector expressing Gal4 alone (Saccharomyces cerevisiae, UniProt P04386); assay: Luciferase reporter control without PPAR ligand binding region in CV-1 cells; details: absence of the binding region for the PPAR α or γ ligand (Gal4 alone)
T3 construct: expressed in transfected cells; host or cells: CV-1 cells (monkey kidney cells)
T3 sequence (P04386 1-147 limits assumed): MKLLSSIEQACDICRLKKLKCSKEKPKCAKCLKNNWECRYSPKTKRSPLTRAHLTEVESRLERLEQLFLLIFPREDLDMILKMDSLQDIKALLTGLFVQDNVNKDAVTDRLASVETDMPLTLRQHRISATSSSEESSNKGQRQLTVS
From the text: CV-1 cells (monkey kidney cells) are co-transfected with an expression vector for the chimeric proteins PPARα-Gal4 or PPARγ-Gal4 and with a “reporter” plasmid that allows the expression of the luciferase gene placed under the control of a promoter containing Gal4 response elements. The cells are inoculated in 96-well microplates and co-transfected using a commercial reagent with the reporter plasmid (pG5-tk-pGL3) and the expression vector for the chimeric protein (PPARα-Gal4 or PPARγ-Gal4). After incubating for 4 hours, whole culture medium (comprising 10% foetal calf serum) is added to the wells. After 24 hours, the medium is removed and replaced by whole medium comprising the test products (50 μM final). The products are left in contact with the cells for 18 hours. The cells are then lysed and the luciferase activity is measured using a luminometer. A PPAR activation factor can then be calculated by means of the activation of the expression of the reporter gene induced by the product (relative to the control cells that have not received any product). […] In the absence of the binding region for the PPAR α or γ ligand (vector expressing Gal4 alone), the luciferase activity measured in the presence of this product is zero.

PPAR activation factor (activation of expression of the luciferase reporter gene) [1]: five | PPAR activation factor (activation of expression of the luciferase reporter gene) [2]: seven | luciferase activity measured in the presence of the product [3]: zero
Compound: CCCC(C=CC(=O)c1cc(OC)ccc1OC)=CC(=O)OCC [Example 12, ethyl 6-(2,5-dimethoxyphenyl)-6-oxo-3-propylhexa-2,4-dienoate]
